“Also recorded” adds a separate entry of the source. Where two headings read alike, the source gives them in different places.
What was measured:
[1] = molecular target: T1, mitochondrial F1F0-ATPase (Bos taurus, UniProt P13621+P32876); assay: biochemical; design: species or system bovine; details: for Ki: oligomycin
[2] = molecular target: T1, mitochondrial F1F0-ATPase; assay: biochemical; design: species or system bovine; details: for Ki: oligomycin; remark: listed apart in the source
[3] = test system: Ramos B cells; assay: cell death of Ramos B cells, propidium iodide exclusion by flow cytometry, 24 h; format: cell-based, human; details: Homo sapiens
[4] = test system: Ramos cells; assay: early O2− (ROS) response, 1 h; format: cell-based, human; details: Homo sapiens, Ramos, 1 h; read-out: ROS EC50 (μM), Ramos cells
Experimental: (§1) To detect O2^−, cells are incubated with DHE (10 μM) for 30 min at 37° C. and are analyzed by flow cytometry to measure ethidium fluorescence. Flow analysis of mitochondrial transmembrane potential (ψm) is conducted by labeling cells with DiOC6(3) (20 nM) for 15 min at 37 degrees C. A positive control for disruption of ψm is established using carbonyl cyanide m-chlorophenylhydrazone (CCCP, 50 μM). Caspase activation assays are performed with FAM-VAD-fluoromethylketone. Processing of the substrate is evaluated by flow cytometry.
(§2) Since an early mitochondrial superoxide (O2^−) mediates apoptosis induced by Bz-423, the O2^− response of cells 1 h following incubation with drug was examined, as well as cell death at 24 h, as previously described (see, e.g., Blatt, N. B., et al., 2002 J Clin Invest 110, 1123-1132; incorporated herein by reference in its entirety).

[5] = test system: Jurkat cells; assay: early O2− (ROS) response, 1 h; format: cell-based
Experimental: as §1, §2

[6] = test system: Jurkat cells; assay: cell death at 24 h; format: cell-based
Experimental: as §2

[7] = molecular target: T2, F1F0-ATPase, OSCP subunit (UniProt P48047); assay: F1F0-ATPase activity in SMPs reconstituted in the presence or absence of the OSCP; format: biochemical, bovine; design: not tied in print to the reconstitution assay; details: FIG. 19C
T2 sequence (P48047 1-213): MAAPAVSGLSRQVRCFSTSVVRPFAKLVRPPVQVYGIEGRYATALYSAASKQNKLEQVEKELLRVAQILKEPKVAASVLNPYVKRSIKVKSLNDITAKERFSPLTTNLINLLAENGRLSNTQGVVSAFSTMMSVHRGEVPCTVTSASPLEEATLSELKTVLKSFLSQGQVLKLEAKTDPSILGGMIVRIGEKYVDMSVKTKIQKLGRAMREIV
Experimental: An additional OSCP binding assay was conducted. […] Benzodiazepine derivative compounds that bind the OSCP include, but are not limited to: […]

[8] = test system: ATP synthesis; assay: cellular ATP synthesis (FIG. 15); format: cell-based
Experimental: The following four compounds were exposed to cells, and ATP synthesis measured: […]

[9] = molecular target: F1F0-ATPase (Bos taurus, UniProt P13621+P32876); assay: off-rate measurements, recovery of ATP synthesis of SMPs after dilution; format: biochemical, bovine
Experimental: Inhibition of Na,K-ATPases with oligomycin is time-dependent and results from a slow rate of dissociation from the enzyme (0.05 s^−1) (see, e.g., Esmann, M. (1991) Biochim. Biophys. Acta 1064, 31-36; herein incorporated by reference in its entirety). Since time-dependent inhibition can have profound effects on the function of the F1F0-ATPase, the off-rate of Bz-423 and oligomycin during ATP synthesis was examined. […] Inhibited SMP suspensions were diluted into buffer and activity was measured over time. Enzymatic activity of the SMPs incubated with Bz-423 had recovered to 90% of control at 10 s, indicating rapid dissociation (see, FIG. 18). In contrast, the activity of the enzyme incubated with oligomycin was only 54% of the uninhibited activity at 10 s, and increased for several minutes after dilution (see, FIG. 18). The time-dependence of the recovery of activity fit to a single exponential yielding an apparent dissociation rate constant for Bz-423>0.3 s^−1. However, dissociation of oligomycin was complex and a portion of the inhibitor dissociated at least 10-fold slower, consistent with a tight-binding, slow-dissociating inhibitor (see, e.g., Morrison, J. F., and Walsh, C. T. (1988) Adv. Enzymol. Relat. Areas Mol. Biol. 61, 201-301; herein incorporated by reference in its entirety). Presumably, the constraints of a high-affinity inhibitor dissociating from the membrane embedded proton channel presented a significant barrier for dissociation resulting in a slow off-rate.
Off-rate measurements. Rate of inhibition of ATP synthesis was measured as described above with the following changes. A 20 μL aliquot of SMPs (1 mg mL^−1) in synthesis buffer (with 10 mM K2HPO4) was added to each well of a 96-well plate containing 2.5 μL of 100× drug (14 μM Bz-423 and 35 nM oligomycin, final) or DMSO vehicle control. The drug was diluted out by adding 200 μL of synthesis buffer to each well. Substratecoupling mixture (25 μL with 1 mM ADP) was added to each well at the indicated time point and the rate of NADP^+ reduction was monitored over time.

[10] = molecular target: F1F0-ATPase (Homo sapiens, UniProt P05496+P48047); details: read-out: IC50 for oligomycin; cited from earlier work
[11] = test system: Na,K-ATPases; details: cited from earlier work
[12] = rodents, two daily doses; cited from earlier work
[13] = molecular target: T3, human OSCP (Homo sapiens, UniProt P48047); assay: OSCP binding by quenching of intrinsic protein fluorescence
T3 construct: made in house; host or cells: E. coli
Text: To determine if Bz-423 indeed binds to the OSCP and the affinity of the interaction, human OSCP was overexpressed in E. coli. […] Bz-423 is the only known inhibitor of the ATPase that functions through binding to the OSCP.

[14] = test system: Ramos cells; assay: cell culture cytotoxicity assays; format: cell-based, human
Experimental: Like most 1,4-benzodiazepines, Bz-423 binds strongly to bovine serum albumin (BSA), which reduces the effective concentration of drug free in solution. For example, in tissue culture media containing 10% (v/v) fetal bovine serum (FBS), ca. 99% of the drug is bound to BSA. Therefore, cell culture cytotoxicity assays are conducted in media with 2% FBS to reduce binding to BSA and increase the free [Bz-423]. Under these conditions, the dose response-curve is quite sharp such that there is a limited concentration range at which Bz-423 is only partly effective. Since some benzodiazepines are known to have anti-proliferative properties, the effect of Bz-423 at concentrations <ED50 were carefully analyzed and observed that in addition to inducing apoptosis, Bz-423 prevented cell growth after 3 d in culture. In these low serum conditions, the cytotoxic and anti-proliferative effects overlapped making it difficult to study each effect independently. […] While higher amounts of drug may also block proliferation, it caused apoptosis well before the effects on proliferation could be observed.
To confirm the decrease in cell number relative to control cells after 3 d of treatment is due to decreased proliferation and not cell death balanced by proliferation, in addition to cell counting, cell divisions were studied. PKH-67 is a fluorescent probe that binds irreversibly to cell membranes and upon cell division is partitioned equally between the daughter cells, making it possible to quantify cell division by flow cytometry. Ramos cells stained with PKH67 and treated with Bz-423 had fewer cell divisions at sub-cytotoxic concentrations which confirmed that the decrease in cell number was due to anti-proliferative affects and not cell death. To determine if Bz-423 induced anti-proliferation was specific to Ramos cells, cell counting and cell cycle experiments were done in other B cell lines and cell lines derived from solid tumors.

[15] = test system: ornithine decarboxylase (ODC); assay: ODC activity in treated cells (conversion of 3H-ornithine to putrescine); format: cell-based, human; details: cells treated for 4 h
Experimental: In these experiments, the conversion of ornithine to putrescine was quantified using ^3H-ornithine. For comparisons, control cells were treated with vehicle control or difluoromethyl ornithine (DFMO), a potent inhibitor of ornithine decarboxylase (like Bz-423, DFMO is a potent anti-proliferative agent). […] The reduction in ODC activity was paralleled by a decrease in ODC protein levels measured under the same conditions.
As described above, Bz-423 induced apoptosis was signaled by an ROS response that arose from MRC complex III as a result of the state 3 to 4 transition. It was next sought to determine if the ROS response, critical for apoptosis, also mediated these effects on ODC. If the ROS was required for the decrease in ODC activity, it would likewise be implicated as potentially part of the anti-proliferative response to Bz-423. To test this, Ramos cells were treated with Bz-423, DFMO, or vehicle control for 4 h. In parallel, a second group of cells was pre-incubated with MnTBAP to limit the ROS and then cultured with Bz-423, DFMO, and vehicle control.

[16] = test system: panel of cells in Table 7; assay: antiproliferation of Bz-Cl against the panel of cells, 3 d; format: cell-based; details: after 3 d
[17] = Jurkat cells, 75 μM PK11195, with or without antioxidant pre-incubation
[18] = hydrolysis, three-dimensional fit
[19] = synthesis, three-dimensional fit

In the case of `CCC(C)N(C)C(=O)c1cc2ccccc2c(-c2ccccc2Cl)n1` (stereo not shown) [PK11195], the “inhibition of mitochondrial ATPase activity” value ([1]; 80 μM) is reported as “do not significantly inhibit mitochondrial ATPase activity”, the EC50 ([1]; bovine SMPs, read-out: ATPase activity EC50 (μM), Hydrolysis) is reported as 230 µM and the EC50 ([2]; bovine SMPs, read-out: ATPase activity EC50 (μM), Synthesis) is reported as 33 µM. The EC50 ([3]; Ramos, 24 h, read-out: Cell death EC50 (μM), Ramos cells) was 90 µM, the EC50 ([3]; Ramos B cells, 24 h (Table 6), read-out: EC50 (μM), cell death) was > 80 µM and the EC50 [4] was 100 µM. The EC50 ([5]; Homo sapiens, Jurkat, 1 h, read-out: ROS EC50 (μM), Jurkat cells) was 56 µM, the “% ROS+” value [5, 17] was 67.9 ± 5.0% and the EC50 ([6]; Homo sapiens, Jurkat, 24 h, read-out: Cell death EC50 (μM), Jurkat cells) was 75 µM. For the same molecule, the “% Cell death” value [6, 17] was 85.5 ± 1.7% and the “dependence of F1F0-ATPase inhibition on the OSCP” value [7] was “more potent inhibitor of F1F0-ATPase activity in the presence of the OSCP”.
In the case of `CN1C(=O)C(c2ccccc2)NC(c2ccc(O)cc2)c2cc(Cl)ccc21` (stereo not shown), the “inhibition of cellular ATP synthesis” value [8] is reported as “did inhibit ATP synthesis”.
With `CC[C@H]1/C=C/C=C/C[C@@H](C)[C@H](O)[C@@](C)(O)C(=O)[C@@H](C)[C@H](O)[C@@H](C)C(=O)[C@@H](C)[C@H](O)[C@@H](C)/C=C/C(=O)O[C@@H]2[C@H](C)[C@H](CC1)O[C@]1(CC[C@H](C)[C@H](C[C@@H](C)O)O1)[C@H]2C` [oligomycin, reference compound] the Mechanism of inhibition ([1]; hydrolysis) was “noncompetitive inhibitor; also recorded: Non-competitive”, the “nE, cooperativity factor for competitive inhibition constant” value ([1]; hydrolysis) was 1.1 ± 0.3 and the “nES, cooperativity factor for uncompetitive inhibition constant” value ([1]; hydrolysis) was 1.2 ± 0.1. The Ki ([1]; hydrolysis, read-out: Ki (E)) was 0.011 ± 0.003 µM, the Ki ([1]; hydrolysis, read-out: Ki (ES)) was 0.013 ± 0.001 µM and the “K∞” value [1, 18] was 0.12 ± 0.02 mM. The Vmax [1, 18] was 0.77 ± 0.03 µmol/min/mg, the Ki ([2]; Ki (E), synthesis) was 0.0105 ± 0.0009 µM and the Ki ([2]; Ki (ES), synthesis) was 0.012 ± 0.001 µM. The Mechanism of inhibition ([2]; synthesis) was “mixed inhibitor”, the “nE, cooperativity factor for competitive inhibition constant” value ([2]; synthesis) was 3.6 ± 0.5 and the “nES, cooperativity factor for uncompetitive inhibition constant” value ([2]; synthesis) was 1.6 ± 0.3. For the same molecule, the “K∞” value [2, 19] was 0.12 ± 0.01 mM, the Vmax [2, 19] was 0.089 ± 0.003 µmol/min/mg and the “slower dissociation of a portion of the inhibitor” value [9] was “at least 10 fold”. The “reduction of F1F0-ATPase activity at the concentration produced after dilution” value ([9]; 1.4 μM Bz-423, 3.5 nM oligomycin) was 15%, the “ATP synthesis activity relative to that in the absence of inhibitor” value ([9]; 14 μM Bz-423 or 35 nM oligomycin) was 14% and the “enzymatic activity recovered after dilution, % of control” value ([9]; at 10 s after dilution) was 54%. For the same molecule, the IC50 [10] was 0.01 µM, the “rate of dissociation from the enzyme” value [11] was 0.05 s⁻¹ and the LD50 for oligomycin [12] was 0.5 mg/kg.
With `CN1C(=O)C(Cc2ccc3ccccc3c2)N=C(c2ccc(Cl)cc2)c2cc(Cl)ccc21` (stereo not shown) [Bz-Cl] the Kd [13] was ~5 µM, the “decrease of cytotoxic activity compared to Bz-423” value [14] was ~80% and the “effect on ODC activity” value [15] was “inhibited ODC activity”. For the same molecule, the “effect on proliferation compared with Bz-423” value [16] was “reduced proliferation to a similar extent as Bz-423”.

— patent US20090275099A1 (priority 2004, published 2009)
